Tests used:
K562 = assay: Cytotoxicity against human K562 cells by sulforhodamine B assay; type: functional
TK-10 = assay: Cytotoxicity against human TK10 cells by sulforhodamine B assay; type: functional
RXF 393 = assay: Cytotoxicity against human RXF393 cells by sulforhodamine B assay; type: functional
HT-29 [1] = assay: Antitumor activity against human HT-29 cells assessed as upregulation of DDIT4 mRNA expression at 2 nM after 6 hrs relative to control; type: functional
HT-29 [2] = assay: Antitumor activity against human HT-29 cells assessed as upregulation of DDIT4 mRNA expression at 10 nM after 3 hrs relative to control; type: functional
HT-29 [3] = assay: Antitumor activity against human HT-29 cells assessed as upregulation of KCNK10 mRNA expression at 2 nM after 3 hrs relative to control; type: functional
HT-29 [4] = assay: Antitumor activity against human HT-29 cells assessed as upregulation of HSPA1A mRNA expression at 10 nM after 12 hrs relative to control; type: functional
SF-268 = assay: Cytotoxicity against human SF268 cells by sulforhodamine B assay; type: functional
SNB-19 = assay: Cytotoxicity against human SNB19 cells by sulforhodamine B assay; type: functional
OVCAR-8 = assay: Cytotoxicity against human OVCAR8 cells by sulforhodamine B assay; type: functional
HT-29 [5] = assay: Antitumor activity against human HT-29 cells assessed as down-regulation of RAB11B mRNA expression at 10 nM after 12 hrs relative to control; type: functional
HCT-116 = assay: Cytotoxicity against human HCT116 cells by sulforhodamine B assay; type: functional
HT-29 [6] = assay: Antitumor activity against human HT-29 cells assessed as down-regulation of CDC25A mRNA expression at 2 nM after 6 hrs relative to control; type: functional
HT-29 [7] = assay: Antitumor activity against human HT-29 cells assessed as upregulation of RASSF4 mRNA expression at 10 nM after 12 hrs relative to control; type: functional
OVCAR-3 = assay: Cytotoxicity against human OVCAR-3 cells by sulforhodamine B assay; type: functional
HT-29 [8] = assay: Antitumor activity against human HT-29 cells assessed as upregulation of MGC4504 mRNA expression at 10 nM after 12 hrs relative to control; type: functional
NCI/ADR-RES = assay: Cytotoxicity against human NCI/ADR-RES cells by sulforhodamine B assay; type: functional
HT-29 [9] = assay: Antitumor activity against human HT-29 cells assessed as upregulation of MGC4504 mRNA expression at 10 nM after 6 hrs relative to control; type: functional
U2OS [10] = assay: Antiproliferative activity against human U2OS cells expressing constitutively active Stat3 mutant after 48 hrs by CMV-GFP reporter assay method; type: functional, cell-based
HT-29 [11] = assay: Antitumor activity against human HT-29 cells assessed as upregulation of MGC4504 mRNA expression at 2 nM after 6 hrs relative to control; type: functional
HOP-92 = assay: Cytotoxicity against human HOP92 cells by sulforhodamine B assay; type: functional
PC-3 = assay: Cytotoxicity against human PC3 cells by sulforhodamine B assay; type: functional
HT-29 [12] = assay: Antitumor activity against human HT-29 cells assessed as upregulation of MGC4504 mRNA expression at 10 nM after 3 hrs relative to control; type: functional
HT-29 [13] = assay: Antitumor activity against human HT-29 cells assessed as down-regulation of TAL1 mRNA expression at 10 nM after 6 hrs relative to control; type: functional
NCI-H226 = assay: Cytotoxicity against human NCI-H226 cells by sulforhodamine B assay; type: functional
HT-29 [14] = assay: Antitumor activity against human HT-29 cells assessed as upregulation of HSPA1A mRNA expression at 2 nM after 6 hrs relative to control; type: functional
HT-29 [15] = assay: Antitumor activity against human HT-29 cells assessed as down-regulation of CDC25A mRNA expression at 10 nM after 3 hrs relative to control; type: functional
[16] = Cytotoxicity against resting human CD4+ T cell assessed as cell viability after 3 days by fluorescence detection method; type: cell-based; details: 72 h
NCI-H322M = assay: Cytotoxicity against human NCI-H322M cells by sulforhodamine B assay; type: functional
M14 = assay: Cytotoxicity against human M14 cells by sulforhodamine B assay; type: functional
HT-29 [17] = assay: Antitumor activity against human HT-29 cells assessed as down-regulation of GTSE1 mRNA expression at 2 nM after 3 hrs relative to control; type: functional
HT-29 [18] = assay: Antitumor activity against human HT-29 cells assessed as upregulation of HSPA1A mRNA expression at 2 nM after 3 hrs relative to control; type: functional
HT-29 [19] = assay: Antitumor activity against human HT-29 cells assessed as down-regulation of RAB11B mRNA expression at 2 nM after 6 hrs relative to control; type: functional
HT-29 [20] = assay: Antitumor activity against human HT-29 cells assessed as upregulation of KCNK10 mRNA expression at 10 nM after 12 hrs relative to control; type: functional
HT-29 [21] = assay: Antitumor activity against human HT-29 cells assessed as down-regulation of GTSE1 mRNA expression at 10 nM after 6 hrs relative to control; type: functional
SK-MEL-28 = assay: Cytotoxicity against human SK-MEL-28 cells by sulforhodamine B assay; type: functional
HT-29 [22] = assay: Antitumor activity against human HT-29 cells assessed as upregulation of KCNK10 mRNA expression at 2 nM after 12 hrs relative to control; type: functional
HL-60(TB) = assay: Cytotoxicity against human HL-60(TB) cells by sulforhodamine B assay; type: functional
HT-29 [23] = assay: Antitumor activity against human HT-29 cells assessed as upregulation of HSPA1A mRNA expression at 2 nM after 12 hrs relative to control; type: functional
HT-29 [24] = assay: Antitumor activity against human HT-29 cells assessed as down-regulation of CCNE2 mRNA expression at 2 nM after 6 hrs relative to control; type: functional
[25] = Cytotoxicity against human […] cells by sulforhodamine B assay; type: functional
U2OS [26] = assay: Cell cycle arrest in human U2OS cells assessed as accumulation at S phase at 50 nM after 24 hrs by FACS analysis (reference value: 37.3%); type: functional
SW-620 = assay: Cytotoxicity against human SW620 cells by sulforhodamine B assay; type: functional
UO-31 = assay: Cytotoxicity against human UO31 cells by sulforhodamine B assay; type: functional
HT-29 [27] = assay: Antitumor activity against human HT-29 cells assessed as down-regulation of RAB11B mRNA expression at 10 nM after 3 hrs relative to control; type: functional
HT-29 [28] = assay: Antitumor activity against human HT-29 cells assessed as down-regulation of CDC25A mRNA expression at 2 nM after 12 hrs relative to control; type: functional
HT-29 [29] = assay: Antitumor activity against human HT-29 cells assessed as upregulation of RASSF4 mRNA expression at 2 nM after 12 hrs relative to control; type: functional
HT-29 [30] = assay: Antitumor activity against human HT-29 cells assessed as down-regulation of GTSE1 mRNA expression at 10 nM after 3 hrs relative to control; type: functional
HT-29 [31] = assay: Antitumor activity against human HT-29 cells assessed as upregulation of HSPA1A mRNA expression at 10 nM after 3 hrs relative to control; type: functional

Question: Which GI50 (K562) does the source give for CC[C@H](C)[C@H]1C(=O)N2CCC[C@H]2C(=O)O[C@H](C(C)(C)C)C[C@@H](C)C[C@H](O)[C@H](C)C2=N[C@@H](/C=C(\C)C(=O)N[C@@H](Cc3ccc(OC)cc3)C(=O)N(C)[C@@H](C)C(=O)N1C)CS2 [APRATOXIN A] here?
Answer: The GI50 was 14.8 nM.

Question: What about the GI50 (TK-10) of the same molecule?
Answer: The GI50 was 2.63 nM.

Question: And the GI50 (RXF 393)?
Answer: The GI50 was 7.12 nM.

Question: What about the “fold change (FC)” value (HT-29 [1]) of the same molecule?
Answer: The value was 10.37.

Question: And the “fold change (FC)” value (HT-29 [2])?
Answer: The value was 4.09.

Question: And the “fold change (FC)” value (HT-29 [3])?
Answer: The value was “<=2”.

Question: What about the “fold change (FC)” value (HT-29 [4]) of the same molecule?
Answer: Its value is “<=2”.

Question: What about the GI50 (SF-268) of the same molecule?
Answer: The GI50 was 50.8 nM.

Question: And the GI50 (SNB-19)?
Answer: Its GI50 is 7 nM.

Question: And the GI50 (OVCAR-8)?
Answer: Its GI50 is 7.26 nM.

Question: What about the “fold change (FC)” value (HT-29 [5]) of the same molecule?
Answer: The value was “<=2”.

Question: And the GI50 (HCT-116)?
Answer: Its GI50 is 0.916 nM.

Question: What about the “fold change (FC)” value (HT-29 [6]) of the same molecule?
Answer: The value was “<=2”.

Question: What about the “fold change (FC)” value (HT-29 [7]) of the same molecule?
Answer: Its value is “<=2”.

Question: What about the GI50 (OVCAR-3) of the same molecule?
Answer: The GI50 was 16.9 nM.

Question: What about the “fold change (FC)” value (HT-29 [8]) of the same molecule?
Answer: Its value is 12.09.

Question: And the GI50 (NCI/ADR-RES)?
Answer: The GI50 was 15.3 nM.

Question: And the “fold change (FC)” value (HT-29 [9])?
Answer: Its value is 10.46.

Question: And the IC50 (U2OS [10])?
Answer: The IC50 was 50 nM.

Question: And the “fold change (FC)” value (HT-29 [11])?
Answer: The value was 7.57.

Question: What about the GI50 (HOP-92) of the same molecule?
Answer: The GI50 was 3.09 nM.

Question: And the GI50 (PC-3)?
Answer: Its GI50 is 4.96 nM.

Question: What about the “fold change (FC)” value (HT-29 [12]) of the same molecule?
Answer: Its value is “<=2”.

Question: What about the “fold change (FC)” value (HT-29 [13]) of the same molecule?
Answer: Its value is “<=2”.

Question: What about the GI50 (NCI-H226) of the same molecule?
Answer: Its GI50 is 1.31 nM.

Question: What about the “fold change (FC)” value (HT-29 [14]) of the same molecule?
Answer: Its value is 2.56.

Question: And the “fold change (FC)” value (HT-29 [15])?
Answer: The value was “<=2”.

Question: What about the IC50 [16] of the same molecule?
Answer: The IC50 was 1800 nM.

Question: What about the GI50 (NCI-H322M) of the same molecule?
Answer: Its GI50 is 3.99 nM.

Question: What about the GI50 (M14) of the same molecule?
Answer: The GI50 was 2.09 nM.

Question: What about the “fold change (FC)” value (HT-29 [17]) of the same molecule?
Answer: Its value is “<=2”.

Question: And the “fold change (FC)” value (HT-29 [18])?
Answer: The value was “<=2”.

Question: What about the “fold change (FC)” value (HT-29 [19]) of the same molecule?
Answer: The value was “<=2”.

Question: What about the “fold change (FC)” value (HT-29 [20]) of the same molecule?
Answer: Its value is “<=2”.

Question: And the “fold change (FC)” value (HT-29 [21])?
Answer: The value was “<=2”.

Question: And the GI50 (SK-MEL-28)?
Answer: The GI50 was 5.49 nM.

Question: And the “fold change (FC)” value (HT-29 [22])?
Answer: The value was “<=2”.

Question: What about the GI50 (HL-60(TB)) of the same molecule?
Answer: The GI50 was 0.851 nM.

Question: What about the “fold change (FC)” value (HT-29 [23]) of the same molecule?
Answer: The value was “<=2”.

Question: And the “fold change (FC)” value (HT-29 [24])?
Answer: Its value is “<=2”.

Question: What about the GI50 [25] of the same molecule?
Answer: Its GI50 is 1.28 nM.

Question: What about the CC50 ([25]; read-out: LC50 (the source's name)) of the same molecule?
Answer: Its CC50 is 69 nM.

Question: What about the inhibition at 0.05 µM (U2OS [26]) of the same molecule?
Answer: Its inhibition at 0.05 µM is 22.6%.

Question: And the GI50 (SW-620)?
Answer: The GI50 was 3.16 nM.

Question: And the GI50 (UO-31)?
Answer: The GI50 was 2.95 nM.

Question: And the “fold change (FC)” value (HT-29 [27])?
Answer: Its value is “<=2”.

Question: What about the “fold change (FC)” value (HT-29 [28]) of the same molecule?
Answer: Its value is -2.2.

Question: And the “fold change (FC)” value (HT-29 [29])?
Answer: Its value is “<=2”.

Question: What about the “fold change (FC)” value (HT-29 [30]) of the same molecule?
Answer: Its value is “<=2”.

Question: And the “fold change (FC)” value (HT-29 [31])?
Answer: The value was 2.21.
